Data taken from patent US20030170223A1, “Pulmonary vasodilator surfactant compositions and method of use” (Board of Trustees of Michigan State University, priority 2002, published 2003).

Tests used:
[1] = target: TNF-α (Homo sapiens, UniProt P01375); details: Fichtlscherer (2001); cited from earlier work
[2] = test system: elevated PVR; assay: GBS-induced pulmonary hypertension, pilot experiments; assay type: in vivo, rats
Procedure: Experimental Protocol is as follows. Fifteen rats were randomly assigned to 1 of 3 groups. Measurements taken at each time point included arterial and mixed venous blood gases, inert gas determinations in samples of arterial blood, mixed venous blood and expired gas, and TNF and TxB2 assays, mean P sa′ mean PAP, P pcw′ and CO from arterial blood, and PVR (PVR=PAP−P pcw/CO), and systemic vascular resistance (SVR=P sa/CO) were calculated at each time point.
After baseline measurements, all rats received continuous infusion of GBS (1.25×10^9 cfu/kg/hr) for 5 hours. Repeat measurements were made at 0.5, 4.0, 4.5, and 5.0 hr of GBS infusion. After 4 hours of GBS infusion, treated animals received amr (amr 10 and amr 20) (Inocor lactate, Sterling Drug Co., New York, N.Y.); control animals (control) received the amr carrier solution containing lactic acid and sodium metabisulfite. Amr 10 rats (n=5; 11.2: t 4.1 days; 3.0: t 0.5 kg) received an amr bolus (8 mg/kg) followed by a continuous infusion of amr diluted with normal saline (10 about g/kg/min) for 1 hour. Amr 20 rats (n=5; 9.2 t 2.2 days; 2.2: t 0.4 kg) received the same amr bolus (8 mg/kg) followed by a continuous infusion of amr diluted with normal saline (20 about g/kg/min) for 1 hour. […]

[3] = test system: non-septic forms of pulmonary hypertension; details: infusion rates of 10 to 40 about g/kg/min, human studies; cited from earlier work

TNF-α, sequence (P01375 77-233 limits assumed): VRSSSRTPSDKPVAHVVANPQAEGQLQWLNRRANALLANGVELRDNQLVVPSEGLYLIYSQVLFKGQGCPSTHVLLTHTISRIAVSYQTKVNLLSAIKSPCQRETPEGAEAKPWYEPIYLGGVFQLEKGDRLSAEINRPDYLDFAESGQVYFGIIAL

Compound	systemic endothelial vasodilator capacity [1]	effect on elevated PVR [2]	reversal of non-septic pulmonary hypertension [3]
ETANERCEPT	profoundly improves	–	–
CC(O)C(=O)O.Nc1cc(-c2ccncc2)c[nH]c1=O [amr]	–	acute reduction in elevated PVR	successful in reversing
